BindingDB's records for patent US20250248973 (Corbus Pharmaceuticals, 2025)

Target: Isoform 3 of Cannabinoid receptor 1 (Human, UniProt P21554)
Test: Biochemical Assay
Method: hCB1/hCB1 b Gai Cyclic AMP (cAMP) Assays: Cells were seeded in a 384-well plate at an appropriate density from frozen cells. The cAMP assays were performed according to the manufacturer's protocol using MULTISCREEN™ TR-FRET cAMP 1.0 No Wash Assay Kit. Cells (hCB1 or hCB1 b) were pre-incubated with customer compounds for 30 minutes at rt followed by addition of EC80 CP55940 concentration and Forskolin. Cells were then incubated for 20 minutes at 37C. The reaction was terminated by sequentially adding sequentially adding MULTISCREEN™ Eu-labeled cAMP and MULTISCREEN™ 650-labeled anti-cAMP antibody in lysis buffer. The plate was then incubated at rt for 30 minutes before reading fluorescent emissions at 620 nm and 665 with excitation at 314 nm on FlexStation III (Molecular Devices).

Chain of Isoform 3 of Cannabinoid receptor 1 (P21554 as listed by the source): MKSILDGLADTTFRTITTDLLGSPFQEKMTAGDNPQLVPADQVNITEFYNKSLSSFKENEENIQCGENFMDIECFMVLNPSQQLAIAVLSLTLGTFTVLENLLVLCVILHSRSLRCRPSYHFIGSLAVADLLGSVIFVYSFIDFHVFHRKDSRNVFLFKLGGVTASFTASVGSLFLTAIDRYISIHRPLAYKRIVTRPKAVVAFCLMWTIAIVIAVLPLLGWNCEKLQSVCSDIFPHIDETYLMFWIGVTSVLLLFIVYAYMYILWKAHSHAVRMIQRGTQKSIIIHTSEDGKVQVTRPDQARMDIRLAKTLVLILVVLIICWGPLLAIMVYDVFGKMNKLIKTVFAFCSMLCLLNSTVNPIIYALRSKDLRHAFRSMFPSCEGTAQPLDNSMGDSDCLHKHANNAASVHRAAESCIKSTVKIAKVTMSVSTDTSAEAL

- IC50: < 100 nM
Structure (SMILES): C#Cc1cccc(S(=O)(=O)N=C(NCCS(N)(=O)=O)N2C[C@H](c3ccccc3)C(c3ccc(Cl)cc3)=N2)c1 [US20250248973, Compound 35]
